This passage reports Kd and IC50 results from patent US20240316022A1 (TYRA BIOSCIENCES, INC., priority 2021, published 2024).

In one test the target is T1, FGFR4 (Homo sapiens, UniProt P22455).
T1 construct: made in house; host or cells: E. coli derived from BL21, infected with T7 phage
Put plainly: Kinase binding assay (kinase-tagged T7 phage, qPCR), Kd. The conditions noted are these: read-out: FGFR4 (Kd nM).

For the next test, the target named is T2, FGFR3 (Homo sapiens, UniProt P22607).
T2 construct: made in house; host or cells: E. coli derived from BL21, infected with T7 phage
The test is described as above. Particulars: read-out: FGFR3 (Kd nM).

Another test concerns the target T3, FGFR1 (Homo sapiens, UniProt P11362).
T3 construct: made in house; host or cells: E. coli derived from BL21, infected with T7 phage
The test is described as above. The conditions noted are these: read-out: FGFR1 (Kd nM).

The target of a further test is T4, FGFR2 (Homo sapiens, UniProt P21802).
T4 construct: made in house; host or cells: E. coli derived from BL21, infected with T7 phage
The test is described as above. The conditions noted are these: read-out: FGFR2 (Kd nM).

A further test deals with T5, BCR-FGFR1 Ba/F3 (Homo sapiens, UniProt P11362).
T5 construct: host or cells: Ba/F3; the other entry of the earlier key: BCR (P11274, Breakpoint cluster region protein)
Put plainly: Ba/F3 cell viability assay (CellTiter-Glo 2.0). The format is cell-based. Particulars: Ba/F3 BCR-FGFR1 cells, 48 hours. The source says:
(§1) Experimental Purpose: Recombinant kinase fusions are transduced into parental Ba/F3, which becomes dependent upon this constitutive kinase activity for IL3-independent survival. Inhibition of kinase activity leads to cell death, which is monitored using CellTiter-Glo® 2.0 (Promega) which measures intracellular ATP concentration that in turn serves as a marker for viability. BCR-FGFR4 Ba/F3, BCR-FGFR1 Ba/F3 and FGFR3-BAIAP2L1 Ba/F3 were obtained from Advanced Cellular Dynamics (Seattle, WA)
(§2) Cell Viability Assay Procedure: Cell Titer-Glo® 2.0 Luminescent cell viability assay reagent was purchased from Promega (Madison, WI). BCR-FGFR4 Ba/F3, BCR-FGFR1 Ba/F3 and FGFR3-BAIAP2L1 Ba/F3 cells were cultured in RPMI1640 media supplemented with 10% fetal bovine serum. Cultures were maintained at 37° C. in a humidified atmosphere of 5% CO2 and 95% air.
(§3) Cells were plated in 96-well clear bottom/white plates (Corning #3903) at 10,000 cells/well in 100 μl of media, incubated overnight. The next day, test compound DMSO stock solutions were made at 10 mM and 2 μM final concentration. Compounds were then added to cells in a 9-dose, 10-fold dilution series starting at 30 μM with an HP 300e Digital Dispenser (each dose was applied in triplicate). DMSO was backfilled to each well up to 301 nL total volume of test compound+DMSO, and a total of 301 nL DMSO was added to a control/no test compound well in triplicate. The cells in cell culture plates were incubated with the compounds at 37° C. and 5% CO2 for 48 hours. Then 50 μl of Cell Titer Glo 2.0 reagent was added to each well of the cell culture plates. The contents were covered from light and mixed on an orbital shaker at room temperature for 10 min. Luminescence was recorded by a Synergy H1 Microplate Reader (Biotek, Winooski, VT). Cells were assessed as a percentage of DMSO only treated control cells. Curves were plotted and IC50 values were calculated using the GraphPad Prism 8 program based on a sigmoidal dose-response equation (4 parameter).

Another test has as its target T6, FGFR3-BAIAP2L1 Ba/F3 (Homo sapiens, UniProt P22607).
T6 construct: host or cells: Ba/F3; the other entry of the earlier key: BAIAP2L1 (Q9UHR4, BAR/IMD domain-containing adapter protein 2-like 1)
Put plainly: Ba/F3 cell viability assay (CellTiter-Glo 2.0). It counts as cell-based. The conditions noted are these: Ba/F3 FGFR3-BAIAP2L1 cells, 48 hours.
Description: as §1, §2, §3

Structures are written as SMILES. Where only a bound is given, the exact number is not on record here.

T1 sequence (P22455 22-802): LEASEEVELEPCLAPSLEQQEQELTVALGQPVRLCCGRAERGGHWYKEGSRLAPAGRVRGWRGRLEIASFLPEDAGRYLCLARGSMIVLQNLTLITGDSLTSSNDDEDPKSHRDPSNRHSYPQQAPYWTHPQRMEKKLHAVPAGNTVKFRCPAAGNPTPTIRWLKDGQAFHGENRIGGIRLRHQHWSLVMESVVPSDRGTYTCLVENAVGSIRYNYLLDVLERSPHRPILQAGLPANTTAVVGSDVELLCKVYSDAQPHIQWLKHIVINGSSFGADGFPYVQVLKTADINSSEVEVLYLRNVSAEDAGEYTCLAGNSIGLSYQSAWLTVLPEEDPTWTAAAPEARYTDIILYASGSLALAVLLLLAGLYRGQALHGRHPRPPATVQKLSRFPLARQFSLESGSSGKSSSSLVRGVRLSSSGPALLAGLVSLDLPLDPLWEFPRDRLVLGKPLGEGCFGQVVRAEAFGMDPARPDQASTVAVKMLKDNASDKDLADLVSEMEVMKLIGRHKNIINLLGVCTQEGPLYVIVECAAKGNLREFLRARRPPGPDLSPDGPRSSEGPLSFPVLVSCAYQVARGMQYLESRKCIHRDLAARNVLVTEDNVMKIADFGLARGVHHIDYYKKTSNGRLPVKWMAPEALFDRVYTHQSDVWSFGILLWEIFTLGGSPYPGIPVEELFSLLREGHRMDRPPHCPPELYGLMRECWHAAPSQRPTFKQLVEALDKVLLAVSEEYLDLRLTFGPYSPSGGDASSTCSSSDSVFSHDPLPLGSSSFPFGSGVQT
T5 sequence (P11362 478-767 limits assumed): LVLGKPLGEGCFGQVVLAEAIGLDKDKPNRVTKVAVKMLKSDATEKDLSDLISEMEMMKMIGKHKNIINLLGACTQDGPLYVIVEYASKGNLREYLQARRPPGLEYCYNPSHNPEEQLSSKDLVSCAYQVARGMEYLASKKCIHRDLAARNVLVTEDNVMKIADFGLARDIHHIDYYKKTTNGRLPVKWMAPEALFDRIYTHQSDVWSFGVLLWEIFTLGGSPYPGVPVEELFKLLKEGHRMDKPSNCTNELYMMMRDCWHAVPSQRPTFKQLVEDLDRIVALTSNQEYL
T2 sequence (P22607 23-806): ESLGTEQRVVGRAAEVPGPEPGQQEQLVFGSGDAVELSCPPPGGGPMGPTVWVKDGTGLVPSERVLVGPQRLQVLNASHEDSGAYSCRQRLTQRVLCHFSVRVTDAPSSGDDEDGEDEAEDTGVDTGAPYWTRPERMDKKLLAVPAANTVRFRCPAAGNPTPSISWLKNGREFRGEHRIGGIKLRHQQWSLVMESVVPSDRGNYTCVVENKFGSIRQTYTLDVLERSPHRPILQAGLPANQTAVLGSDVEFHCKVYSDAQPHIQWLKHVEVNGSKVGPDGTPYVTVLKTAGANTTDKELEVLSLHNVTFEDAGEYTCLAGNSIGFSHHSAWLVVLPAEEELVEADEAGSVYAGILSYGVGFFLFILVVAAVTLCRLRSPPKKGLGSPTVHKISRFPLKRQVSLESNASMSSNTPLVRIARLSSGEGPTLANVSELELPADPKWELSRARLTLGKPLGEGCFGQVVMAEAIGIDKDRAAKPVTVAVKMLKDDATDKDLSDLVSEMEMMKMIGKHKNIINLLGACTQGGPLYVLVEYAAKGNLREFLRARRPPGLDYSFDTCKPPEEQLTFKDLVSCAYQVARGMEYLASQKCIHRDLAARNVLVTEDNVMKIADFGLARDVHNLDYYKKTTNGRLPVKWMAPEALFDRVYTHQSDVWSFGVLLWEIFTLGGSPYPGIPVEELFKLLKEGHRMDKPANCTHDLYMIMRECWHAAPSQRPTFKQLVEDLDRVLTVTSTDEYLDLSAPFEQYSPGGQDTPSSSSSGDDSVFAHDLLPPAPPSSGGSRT
T4 sequence (P21802 22-821): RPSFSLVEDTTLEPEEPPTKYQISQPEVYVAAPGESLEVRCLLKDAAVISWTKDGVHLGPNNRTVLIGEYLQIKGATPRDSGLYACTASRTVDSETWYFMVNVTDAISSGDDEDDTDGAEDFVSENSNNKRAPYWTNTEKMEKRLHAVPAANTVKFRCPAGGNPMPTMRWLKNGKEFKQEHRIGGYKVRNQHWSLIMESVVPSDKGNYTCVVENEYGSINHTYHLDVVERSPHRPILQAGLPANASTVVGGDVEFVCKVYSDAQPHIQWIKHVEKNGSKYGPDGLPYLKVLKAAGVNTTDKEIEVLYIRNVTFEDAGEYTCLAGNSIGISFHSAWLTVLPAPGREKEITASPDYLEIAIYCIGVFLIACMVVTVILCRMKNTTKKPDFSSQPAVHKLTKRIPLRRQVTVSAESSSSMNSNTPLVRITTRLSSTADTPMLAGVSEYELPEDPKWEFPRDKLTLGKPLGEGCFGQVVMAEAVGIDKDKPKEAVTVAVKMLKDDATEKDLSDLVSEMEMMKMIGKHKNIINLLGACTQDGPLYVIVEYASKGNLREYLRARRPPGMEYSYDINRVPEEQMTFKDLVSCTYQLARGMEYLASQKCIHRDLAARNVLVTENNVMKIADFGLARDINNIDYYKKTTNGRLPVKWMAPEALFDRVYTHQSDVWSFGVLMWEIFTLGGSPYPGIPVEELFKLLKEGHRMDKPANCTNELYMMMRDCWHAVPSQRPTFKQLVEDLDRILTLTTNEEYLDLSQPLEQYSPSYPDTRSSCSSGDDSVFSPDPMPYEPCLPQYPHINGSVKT
T3 sequence (P11362 22-822): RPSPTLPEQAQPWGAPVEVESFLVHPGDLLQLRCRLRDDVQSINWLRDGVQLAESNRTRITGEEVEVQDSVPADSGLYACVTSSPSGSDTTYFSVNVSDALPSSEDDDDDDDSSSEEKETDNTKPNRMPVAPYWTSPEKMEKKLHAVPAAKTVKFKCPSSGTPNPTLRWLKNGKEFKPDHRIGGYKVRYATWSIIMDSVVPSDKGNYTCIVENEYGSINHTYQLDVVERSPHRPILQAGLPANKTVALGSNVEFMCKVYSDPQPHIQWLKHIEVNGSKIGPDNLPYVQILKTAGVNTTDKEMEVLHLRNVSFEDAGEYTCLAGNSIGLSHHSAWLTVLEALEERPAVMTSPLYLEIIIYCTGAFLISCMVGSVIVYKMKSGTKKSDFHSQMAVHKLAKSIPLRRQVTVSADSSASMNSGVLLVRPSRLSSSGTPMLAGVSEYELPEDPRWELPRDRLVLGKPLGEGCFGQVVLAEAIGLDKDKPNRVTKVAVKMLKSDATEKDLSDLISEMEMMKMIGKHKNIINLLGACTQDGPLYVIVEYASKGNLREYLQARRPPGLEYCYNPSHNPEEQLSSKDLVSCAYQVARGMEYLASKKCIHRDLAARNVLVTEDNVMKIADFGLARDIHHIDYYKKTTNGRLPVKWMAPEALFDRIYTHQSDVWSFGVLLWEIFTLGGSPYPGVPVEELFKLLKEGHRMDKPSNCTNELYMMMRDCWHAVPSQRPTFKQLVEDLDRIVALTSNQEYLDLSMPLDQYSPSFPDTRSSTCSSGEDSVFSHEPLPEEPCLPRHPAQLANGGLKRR
T6 sequence (P22607 397-758 limits assumed): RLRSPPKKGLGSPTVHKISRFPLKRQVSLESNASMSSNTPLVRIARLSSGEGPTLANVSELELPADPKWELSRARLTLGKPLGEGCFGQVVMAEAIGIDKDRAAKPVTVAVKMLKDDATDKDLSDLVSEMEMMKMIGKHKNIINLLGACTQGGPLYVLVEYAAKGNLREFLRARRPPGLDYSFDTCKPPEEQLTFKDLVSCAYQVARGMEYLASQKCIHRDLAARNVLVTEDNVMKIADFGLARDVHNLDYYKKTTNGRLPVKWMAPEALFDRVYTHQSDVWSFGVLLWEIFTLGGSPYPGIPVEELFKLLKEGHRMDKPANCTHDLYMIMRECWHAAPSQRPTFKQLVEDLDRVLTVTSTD

In the case of `C[C@@H](Oc1ccc2[nH]nc(-c3cnc4c(c3)N(S(C)(=O)=O)CCO4)c2c1)c1c(Cl)cncc1Cl` [Example 137, 7-[5-[(1R)-1-(3,5-dichloro-4-pyridyl)ethoxy]-1H-indazol-3-yl]-1-methylsulfonyl-2,3-dihydropyrido[2,3-b][1,4]oxazine], the Kd (usually a measure of binding affinity in units of concentration) at FGFR4 was in the range of 0.1 to 100 nM; at FGFR3 it was 0.1 to 100 nM; on FGFR1, 250 to 1000 nM; at FGFR2, 100 to 250 nM. The IC50 (commonly the concentration that inhibits the measured activity by half) at BCR-FGFR1 Ba/F3 lay in the range of 250 to 1000 nM; on FGFR3-BAIAP2L1 Ba/F3, 0.1 to 100 nM.

With `Cc1cc(-c2n[nH]c3ccc(O[C@H](C)c4c(Cl)cnc(C)c4Cl)cc23)cnc1O[C@@H]1CCOC1` [Example 148, 5-((R)-1-(3,5-Dichloro-2-methylpyridin-4-yl)ethoxy)-3-(5-methyl-6-(((R)-tetrahydrofuran-3-yl)oxy)pyridin-3-yl)-1H-indazole], the Kd at FGFR4 lay within 0.1 to 100 nM; on FGFR3, 0.1 to 100 nM; on FGFR1 it was 250 to 1000 nM; at FGFR2 it was 250 to 1000 nM. Further, the IC50 is 250 to 1000 nM at BCR-FGFR1 Ba/F3 and 100 to 250 nM on FGFR3-BAIAP2L1 Ba/F3.

In the case of `C[C@@H](Oc1ccc2[nH]nc(-c3ccc4c(c3)COC3(CCN(S(C)(=O)=O)CC3)O4)c2c1)c1c(Cl)cncc1Cl` [Example 165, 6-[5-[(1R)-1-(3,5-dichloro-4-pyridyl)ethoxy]-1H-indazol-3-yl]-1′-methylsulfonyl-spiro[4H-1,3-benzodioxine-2,4′-piperidine]], the Kd on FGFR4, at FGFR3, at FGFR1 and at FGFR2 was 0.1 to 100 nM in each case. Further, the values for the IC50 on BCR-FGFR1 Ba/F3 and at FGFR3-BAIAP2L1 Ba/F3 were 250 to 1000 nM and 0.1 to 100 nM, respectively.

In the case of `Cc1ncc(Cl)c([C@@H](C)Oc2ccc3[nH]nc(-c4ccc(O[C@@H]5CCOC5)nc4)c3c2)c1Cl` [Example 147, 5-((R)-1-(3,5-Dichloro-2-methylpyridin-4-yl)ethoxy)-3-(6-(((R)-tetrahydrofuran-3-yl)oxy)pyridin-3-yl)-1H-indazole], the Kd at FGFR4, at FGFR3, on FGFR1 and on FGFR2 was 0.1 to 100 nM each time. Besides, the IC50 is > 1000 nM at BCR-FGFR1 Ba/F3 and 100 to 250 nM on FGFR3-BAIAP2L1 Ba/F3.

For the molecule `Cc1ncc(Cl)c([C@@H](C)Oc2ccc3[nH]nc(-c4ccc(NC5CCOCC5)nc4)c3c2)c1Cl` [Example 156], the Kd at FGFR4, on FGFR3, at FGFR1 and on FGFR2 was 0.1 to 100 nM throughout. In addition, the IC50 was 100 to 250 nM on BCR-FGFR1 Ba/F3 and 0.1 to 100 nM at FGFR3-BAIAP2L1 Ba/F3.

Turning to `CCN1CCC2(CC1)CC(=O)c1cc(-c3n[nH]c4ccc(O[C@H](C)c5c(Cl)cncc5Cl)cc34)ccc1O2` [Example 95, (R)-6-(5-(1-(3,5-Dichloropyridin-4-yl)ethoxy)-1H-indazol-3-yl)-1′-ethylspiro[chromane-2,4′-piperidin]-4-one], the Kd at FGFR4, on FGFR3, on FGFR1 and on FGFR2 was 0.1 to 100 nM each time. For the same molecule, the half-inhibitory concentration (IC50) lay in the range of 100 to 250 nM at BCR-FGFR1 Ba/F3 and 0.1 to 100 nM at FGFR3-BAIAP2L1 Ba/F3.

As for `COc1c(F)cc(-c2n[nH]c3ccc(O[C@H](C)c4c(C)cnnc4C)cc23)cc1C#N` [Example 82, 5-[5-[(1R)-1-(3,5-dimethylpyridazin-4-yl)ethoxy]-1H-indazol-3-yl]-3-fluoro-2-methoxy-benzonitrile], the Kd on FGFR4 lay in the range of 0.1 to 100 nM; on FGFR3 it was 0.1 to 100 nM; on FGFR1, 100 to 250 nM; at FGFR2, 100 to 250 nM. In addition, the IC50 at FGFR3-BAIAP2L1 Ba/F3 fell in the range of 100 to 250 nM.

On to `Cc1ncc(Cl)c([C@@H](C)Oc2ccc3[nH]nc(-c4ccc(N[C@@H]5CCOC5)nc4)c3c2)c1Cl` [Example 155, 5-(5-((R)-1-(3,5-Dichloro-2-methylpyridin-4-yl)ethoxy)-1H-indazol-3-yl)-N-((R)-tetrahydrofuran-3-yl)pyridin-2-amine], for which the Kd at FGFR4, at FGFR3, at FGFR1 and on FGFR2 was 0.1 to 100 nM in each case. In addition, the values for the IC50 on BCR-FGFR1 Ba/F3 and at FGFR3-BAIAP2L1 Ba/F3 were 100 to 250 nM and 0.1 to 100 nM, respectively.

As to `Cc1ncc(Cl)c([C@@H](C)Oc2ccc3[nH]nc(-c4ccc5c(c4)COC4(CCN(S(C)(=O)=O)CC4)O5)c3c2)c1Cl` [Example 163, (R)-6-(5-(1-(3,5-Dichloro-2-methylpyridin-4-yl)ethoxy)-1H-indazol-3-yl)-1′-(methylsulfonyl)-4H-spiro[benzo[d][1,3]dioxine-2,4′-piperidine]], the Kd at FGFR4 is 100 to 250 nM; at FGFR3, 0.1 to 100 nM; at FGFR1, 100 to 250 nM; at FGFR2 it was 0.1 to 100 nM. The IC50 on BCR-FGFR1 Ba/F3 fell in the range of 250 to 1000 nM; at FGFR3-BAIAP2L1 Ba/F3, 0.1 to 100 nM.

As to `C[C@@H](Oc1ccc2[nH]nc(-c3ccc4c(c3)COC3(CCN(C5CCC5)CC3)O4)c2c1)c1c(Cl)cncc1Cl` [Example 157, (R)-1′-Cyclobutyl-6-(5-(1-(3,5-dichloropyridin-4-yl)ethoxy)-1H-indazol-3-yl)-4H-spiro[benzo[d][1,3]dioxine-2,4′-piperidine]], the Kd on FGFR4, on FGFR3, on FGFR1 and at FGFR2 was 0.1 to 100 nM each time. Besides, the concentration for half-maximal inhibition (IC50) lay within 250 to 1000 nM on BCR-FGFR1 Ba/F3 and 0.1 to 100 nM on FGFR3-BAIAP2L1 Ba/F3.

Take `Cc1cnnc(C)c1[C@@H](C)Oc1ccc2[nH]nc(-c3cc(C#N)cc(OC4CCOCC4)c3)c2c1` [Example 71, 3-[5-[(1R)-1-(3,5-dimethylpyridazin-4-yl)ethoxy]-1H-indazol-3-yl]-5-tetrahydropyran-4-yloxy-benzonitrile]: the Kd was 0.1 to 100 nM at FGFR4, 250 to 1000 nM on FGFR3, 250 to 1000 nM on FGFR1 and > 1000 nM on FGFR2.

For `Cc1cnnc(C)c1[C@@H](C)Oc1ccc2[nH]nc(-c3cc(C#N)cc(N4CC5(CN(C)C5)C4)c3)c2c1` [Example 87, 3-[5-[(1R)-1-(3,5-dimethylpyridazin-4-yl)ethoxy]-1H-indazol-3-yl]-5-(6-methyl-2,6-diazaspiro[3.3]heptan-2-yl)benzonitrile], the dissociation constant Kd at FGFR4 was 250 to 1000 nM; at FGFR3, 250 to 1000 nM; on FGFR1 it was > 1000 nM; on FGFR2, 250 to 1000 nM.

In the case of `COc1ncc(-c2n[nH]c3ccc(O[C@H](C)c4c(Cl)cncc4Cl)cc23)cc1NC(=O)N1CCN(C)CC1` [Example 7, (R)—N-(5-(5-(1-(3,5-Dichloropyridin-4-yl)ethoxy)-1H-indazol-3-yl)-2-methoxypyridin-3-yl)-4-methylpiperazine-1-carboxamide], the Kd is 0.1 to 100 nM at FGFR4, 100 to 250 nM on FGFR3, > 1000 nM on FGFR1 and > 1000 nM on FGFR2.

As to `COc1cc(OC)cc(-c2n[nH]c3ccc(O[C@H](C)c4c(C)cnnc4C)cc23)c1` [Example 54, 3-(3,5-dimethoxyphenyl)-5-[(1R)-1-(3,5-dimethylpyridazin-4-yl)ethoxy]-1H-indazole], the Kd on FGFR4 lay in the range of 0.1 to 100 nM; at FGFR3, 0.1 to 100 nM; at FGFR1, 250 to 1000 nM; at FGFR2 it was 250 to 1000 nM.

`C[C@@H](Oc1ccc2[nH]nc(-c3cnc4c(c3)N(CC(F)F)CCO4)c2c1)c1c(Cl)cncc1Cl` [Example 142, (R)-7-(5-(1-(3,5-dichloropyridin-4-yl)ethoxy)-1H-indazol-3-yl)-1-(2,2-difluoroethyl)-2,3-dihydro-1H-pyrido[2,3-b][1,4]oxazine]: the Kd was 250 to 1000 nM at FGFR4, > 1000 nM at FGFR3, > 1000 nM at FGFR1 and > 1000 nM at FGFR2.
